From patent US20250230193A1, “CYCLIC COMPOUND HAVING SELECTIVE KRAS INHIBITORY EFFECT ON HRAS AND NRAS” (CHUGAI SEIYAKU KABUSHIKI KAISHA, priority 2022, published 2025)

Key:
[1] = molecular target: GDP-bound HRAS wild-type protein (Homo sapiens, UniProt P01112); assay: Binding to HRAS by surface plasmon resonance (SPR), Single Cycle Kinetics; settings: SPR, GDP-bound HRAS wild-type vs GDP-bound KRAS wild-type
[2] = molecular target: GDP-bound NRAS wild-type protein (Homo sapiens, UniProt P01111); assay: Binding to NRAS by surface plasmon resonance (SPR), Single Cycle Kinetics; settings: SPR, GDP-bound NRAS wild-type vs GDP-bound KRAS wild-type
Chain of GDP-bound NRAS wild-type protein (P01111 whole entry): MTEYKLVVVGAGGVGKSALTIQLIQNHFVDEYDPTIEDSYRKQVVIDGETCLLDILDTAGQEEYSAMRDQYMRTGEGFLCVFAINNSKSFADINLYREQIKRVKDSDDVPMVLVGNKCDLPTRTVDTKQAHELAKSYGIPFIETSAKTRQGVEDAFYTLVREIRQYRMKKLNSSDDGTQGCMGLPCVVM

Chain of GDP-bound HRAS wild-type protein (P01112 whole entry): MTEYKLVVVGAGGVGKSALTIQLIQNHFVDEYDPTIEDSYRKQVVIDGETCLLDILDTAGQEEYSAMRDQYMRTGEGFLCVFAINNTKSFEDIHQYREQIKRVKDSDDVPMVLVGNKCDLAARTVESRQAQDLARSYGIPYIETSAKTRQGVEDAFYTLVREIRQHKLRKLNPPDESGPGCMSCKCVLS

Compound | HRAS/KRAS (ratio of KD value with respect to HRAS to KD value with respect to KRAS) [1] | NRAS/KRAS (ratio of KD value with respect to NRAS to KD value with respect to KRAS) [2]
CCC[C@@H]1C[C@H]2C(=O)NC3(CC(C)(C)C3)C(=O)N(C)[C@@H](C3CCCC3)C(=O)N(C)[C@H](C(=O)N(C)C)CC(=O)N(C)[C@@H](C)C(=O)N[C@@H]([C@@H](C)CC)C(=O)N(C)CC(=O)N(C)[C@H]3C/C=C\CCN(C3=O)[C@@H](Cc3ccc(C(F)(F)F)cc3)C(=O)N(C)CC(=O)N[C@@H](CCc3cc(F)c(C(F)(F)F)c(F)c3)C(=O)N2C1 [PP2273] | A (a compound having 10 or more and less than 20 is denoted as A) | AA (a compound having 20 or more is denoted as AA)
CCC[C@@H]1C[C@H]2C(=O)NC3(CC(C)(C)C3)C(=O)N(C)[C@@H](C3CCCC3)C(=O)N(C)[C@H](C(=O)N(C)C)CC(=O)N(C)[C@@H](COC)C(=O)N[C@@H]([C@@H](C)CC)C(=O)N(C)CC(=O)N(C)[C@H]3C/C=C\CCN(C3=O)[C@@H](Cc3ccc(C(F)(F)F)cc3)C(=O)N(C)CC(=O)N[C@@H](CCc3ccc(C(F)(F)F)c(Cl)c3)C(=O)N2C1 [PP2275] | A (a compound having 10 or more and less than 20 is denoted as A) | A (a compound having 10 or more and less than 20 is denoted as A)
CCC[C@H]1C(=O)N[C@@H]([C@@H](C)CC)C(=O)N(C)CC(=O)N(C)[C@H]2C/C=C\CCN(C2=O)[C@@H](Cc2ccc(C(F)(F)F)cc2)C(=O)N(C)CC(=O)N[C@@H](CCc2ccc(C(F)(F)F)c(OC)c2)C(=O)N2C[C@H](OCC)C[C@H]2C(=O)N(C)C2(CCC2)C(=O)N(C)[C@@H](C2CCCC2)C(=O)N(C)[C@H](C(=O)N(C)C)CC(=O)N1C [PP2312] | B (a compound having 3 or more and less than 10 is denoted as B) | A (a compound having 10 or more and less than 20 is denoted as A)
CCC[C@H]1C(=O)N[C@@H]([C@@H](C)CC)C(=O)N(C2CC2)CC(=O)N(C)[C@H]2C/C=C\CCN(C2=O)[C@@H](Cc2ccc(C(F)(F)F)cc2)C(=O)N(C)CC(=O)N[C@@H](CCc2ccc(C(F)(F)F)c(OC)c2)C(=O)N2C[C@H](OCC)C[C@H]2C(=O)N(C)C2(CCC2)C(=O)N(C)[C@@H](C(CC)CC)C(=O)N(C)[C@H](C(=O)N(C)C)CC(=O)N1C [PP2313] | A (a compound having 10 or more and less than 20 is denoted as A) | AA (a compound having 20 or more is denoted as AA)
CCOC[C@H]1C(=O)N[C@@H]([C@@H](C)CC)C(=O)N(C2CC2)CC(=O)N(C)[C@H]2C/C=C\CCN(C2=O)[C@@H](Cc2ccc(C(F)(F)F)cc2)C(=O)N(C)CC(=O)N[C@@H](CCc2ccc(C(F)(F)F)c(OC)c2)C(=O)N2C[C@H](OCC)C[C@H]2C(=O)N(C)C2(CCC2)C(=O)N(C)[C@@H](C(CC)CC)C(=O)N(C)[C@H](C(=O)N(C)C)CC(=O)N1C [PP2315] | A (a compound having 10 or more and less than 20 is denoted as A) | A (a compound having 10 or more and less than 20 is denoted as A)
CCC[C@H]1C(=O)N[C@@H]([C@@H](C)CC)C(=O)N(C2CC2)CC(=O)N(C)[C@H]2C/C=C\CCN(C2=O)[C@@H](Cc2ccc(C(F)(F)F)cc2)C(=O)N(C)CC(=O)N[C@@H](CCc2ccc(C(F)(F)F)c(OC)c2)C(=O)N2C[C@H](OCC)C[C@H]2C(=O)N(C)C2(CCC2)C(=O)N(C)[C@@H](C2CCCC2)C(=O)N(C)[C@H](C(=O)N(C)C)CC(=O)N1C [PP2316, (2S,8S,12R,14S,20S,23S,27S,30S,36S,38Z)-20-cyclopentyl-32-cyclopropyl-12-ethoxy-8-[2-[3-methoxy-4-(trifluoromethyl)phenyl]ethyl]-N,N,4,16,19,22,26,35-octamethyl-30-[(1S)-1-methylpropyl]-3,6,9,15,18,21,25,28,31,34,42-undecaoxo-27-propyl-2-[[4-(trifluoromethyl)phenyl]methyl]spiro[1,4,7,10,16,19,22,26,29,32,35-undecazatricyclo[34.5.1.0^10,14]dotetracont-38-ene-17,1′-cyclobutane]-23-carboxamide] | A (a compound having 10 or more and less than 20 is denoted as A) | A (a compound having 10 or more and less than 20 is denoted as A)
CCC[C@H]1C(=O)N[C@@H]([C@@H](C)CC)C(=O)N2CCC[C@H]2C(=O)N(C)[C@H]2C/C=C\CCN(C2=O)[C@@H](Cc2ccc(C(F)(F)F)cc2)C(=O)N(C)CC(=O)N[C@@H](CCc2ccc(C(F)(F)F)c(OC)c2)C(=O)N2C[C@H](OCC)C[C@H]2C(=O)N(C)C2(CCC2)C(=O)N(C)[C@@H](C(CC)CC)C(=O)N(C)[C@H](C(=O)N(C)C)CC(=O)N1C [PP2317] | A (a compound having 10 or more and less than 20 is denoted as A) | A (a compound having 10 or more and less than 20 is denoted as A)
CCCOC[C@H]1C(=O)N[C@@H]([C@@H](C)CC)C(=O)N(C2CC2)CC(=O)N(C)[C@H]2C/C=C\CCN(C2=O)[C@@H](Cc2ccc(C(F)(F)F)cc2)C(=O)N(C)CC(=O)N[C@@H](CCc2ccc(C(F)(F)F)c(OC)c2)C(=O)N2C[C@H](OCC)C[C@H]2C(=O)N(C)C2(CCC2)C(=O)N(C)[C@@H](C2CCCC2)C(=O)N(C)[C@H](C(=O)N(C)C)CC(=O)N1C [PP2318] | A (a compound having 10 or more and less than 20 is denoted as A) | A (a compound having 10 or more and less than 20 is denoted as A)
CCOC[C@H]1C(=O)N[C@@H]([C@@H](C)CC)C(=O)N2CCC[C@H]2C(=O)N(C)[C@H]2C/C=C\CCN(C2=O)[C@@H](Cc2ccc(C(F)(F)F)cc2)C(=O)N(C)CC(=O)N[C@@H](CCc2ccc(C(F)(F)F)c(OC)c2)C(=O)N2C[C@H](OCC)C[C@H]2C(=O)N(C)C2(CCC2)C(=O)N(C)[C@@H](C(CC)CC)C(=O)N(C)[C@H](C(=O)N(C)C)CC(=O)N1C [PP2319] | A (a compound having 10 or more and less than 20 is denoted as A) | AA (a compound having 20 or more is denoted as AA)
CCC[C@H]1C(=O)N[C@@H]([C@@H](C)CC)C(=O)N2CCC[C@H]2C(=O)N(C)[C@H]2C/C=C\CCN(C2=O)[C@@H](Cc2ccc(C(F)(F)F)cc2)C(=O)N(C)CC(=O)N[C@@H](CCc2ccc(C(F)(F)F)c(OC)c2)C(=O)N2C[C@H](OCC)C[C@H]2C(=O)N(C)C2(CCC2)C(=O)N(C)[C@@H](C2CCCC2)C(=O)N(C)[C@H](C(=O)N(C)C)CC(=O)N1C [PP2320, (1S,4S,10S,13S,17S,20S,26S,28R,32S,38S,42Z)-20-cyclopentyl-28-ethoxy-32-[2-[3-methoxy-4-(trifluoromethyl)phenyl]ethyl]-N,N,2,14,18,21,24,36-octamethyl-10-[(1S)-1-methylpropyl]-3,9,12,15,19,22,25,31,34,37,45-undecaoxo-13-propyl-38-[[4-(trifluoromethyl)phenyl]methyl]spiro[2,8,11,14,18,21,24,30,33,36,39-undecazatetracyclo[37.5.1.0^4,8.0^26,30]pentatetracont-42-ene-23,1′-cyclobutane]-17-carboxamide] | A (a compound having 10 or more and less than 20 is denoted as A) | A (a compound having 10 or more and less than 20 is denoted as A)
CCCOC[C@H]1C(=O)N[C@@H]([C@@H](C)CC)C(=O)N2CCC[C@H]2C(=O)N(C)[C@H]2C/C=C\CCN(C2=O)[C@@H](Cc2ccc(C(F)(F)F)cc2)C(=O)N(C)CC(=O)N[C@@H](CCc2ccc(C(F)(F)F)c(OC)c2)C(=O)N2C[C@H](OCC)C[C@H]2C(=O)N(C)C2(CCC2)C(=O)N(C)[C@@H](C2CCCC2)C(=O)N(C)[C@H](C(=O)N(C)C)CC(=O)N1C [PP2322] | B (a compound having 3 or more and less than 10 is denoted as B) | A (a compound having 10 or more and less than 20 is denoted as A)
CCCOC[C@H]1C(=O)N[C@@H]([C@@H](C)CC)C(=O)N(C)CC(=O)N(C)[C@H]2C/C=C\CCN(C2=O)[C@@H](Cc2ccc(C)cc2)C(=O)N(C)CC(=O)N[C@@H](CCc2ccc(C(F)(F)F)c(OC)c2)C(=O)N2C[C@H](OCC)C[C@H]2C(=O)N(C)C2(CCC2)C(=O)N(C)[C@@H](C(CC)CC)C(=O)N(C)[C@H](C(=O)N(C)C)CC(=O)N1C [PP2323] | A (a compound having 10 or more and less than 20 is denoted as A) | A (a compound having 10 or more and less than 20 is denoted as A)
CCC[C@H]1C(=O)N[C@@H]([C@@H](C)CC)C(=O)N(C2CC2)CC(=O)N(C)[C@H]2C/C=C\CCN(C2=O)[C@@H](Cc2ccc(C)cc2)C(=O)N(C)CC(=O)N[C@@H](CCc2ccc(C(F)(F)F)c(OC)c2)C(=O)N2C[C@H](OCC)C[C@H]2C(=O)N(C)C2(CCC2)C(=O)N(C)[C@@H](C(CC)CC)C(=O)N(C)[C@H](C(=O)N(C)C)CC(=O)N1C [PP2325] | A (a compound having 10 or more and less than 20 is denoted as A) | A (a compound having 10 or more and less than 20 is denoted as A)
